Data: US20160031925A1, “AZITHROMYCIN ANTIMICROBIAL DERIVATIVES WITH NON-ANTIBIOTIC PHARMACEUTICAL EFFECT” (priority 2013, published 2016)
Where two headings read alike, the source gives them in different places.

Columns and labels:
human airway epithelia = conditions: reference 6; cited from earlier work
[1] = tested on: Staphylococcus aureus ATTC 6538; experiment: Antimicrobial disk susceptibility test (CLSI M2-A9), S. aureus; assay type: cell-based
Method: (§1) Test for the antimicrobial activity of the novel compounds may be performed according to the standards of Clinical and Laboratory Standards Institute, Performance Standards for Antimicrobial Disk Susceptibility Tests; approved Standard; M2-A), vol. 26 NO. 1 9th ed.
(§2) A test for the antimicrobial activity of the novel compounds were performed according to the standards of Clinical and Laboratory Standards Institute, Performance Standards for Antimicrobial Disk Susceptibility Tests; approved Standard; M2-A), vol. 26 NO. 1 9th ed. The samples were dissolved in 10 ml of sterile Milli-Q water by magnetic stirring overnight at 20° C.
(§3) Two doses of the samples were tested in duplicate, a) and b). The size of the inhibition zones were measured in mm after incubation.

[2] = tested on: Escherichia coli ATCC 8739; experiment: Antimicrobial disk susceptibility test (CLSI M2-A9), E. coli; assay type: cell-based
Method: as §1, §2, §3

[3] = tested on: Pseudomonas aeruginosa ATCC 9027; experiment: Antimicrobial disk susceptibility test (CLSI M2-A9), P. aeruginosa; assay type: cell-based
Method: as §1, §2, §3

[4] = tested on: Klebsiella pneumonia ATCC 35657; experiment: Antimicrobial disk susceptibility test (CLSI M2-A9), K. pneumonia; assay type: cell-based
Method: as §1, §2, §3

penicillin
effect on transepithelial electrical resistance / processing of tight junction proteins (human airway epithelia): not observed

CC[C@H]1OC(=O)[C@H](C)[C@@H](O[C@H]2C[C@@](C)(OC)[C@@H](O)[C@H](C)O2)[C@H](C)[C@@H](O[C@@H]2O[C@H](C)C[C@H](N(C)C)[C@H]2O)[C@](C)(O)C[C@@H](C)C(=O)[C@H](C)[C@@H](O)[C@]1(C)O [erythromycin]
effect on transepithelial electrical resistance / processing of tight junction proteins (human airway epithelia): not observed

CCC1OC(=O)C(C)C(OC2CC(C)(OC)C(C)C(C)O2)C(C)C(OC2OC(C)CC(N(C)C)C2C)C(C)(O)CC(C)CN(C)C(C)C(O)C1(C)O (centres unmarked) [PP003]
size of the inhibition zone, S. aureus a) ([1]; 5 μg/disk, duplicate a)): <1 mm
size of the inhibition zone, S. aureus b) ([1]; 5 μg/disk, duplicate b)): <1 mm
size of the inhibition zone, S. aureus a) ([1]; 10 μg/disk, duplicate a)): <1 mm
size of the inhibition zone, S. aureus b) ([1]; 10 μg/disk, duplicate b)): <1 mm
size of the inhibition zone, E. coli a) ([2]; 5 μg/disk, duplicate a)): <1 mm
size of the inhibition zone, E. coli b) ([2]; 5 μg/disk, duplicate b)): <1 mm
size of the inhibition zone, E. coli a) ([2]; 10 μg/disk, duplicate a)): <1 mm
size of the inhibition zone, E. coli b) ([2]; 10 μg/disk, duplicate b)): <1 mm
size of the inhibition zone, P. aeruginosa a) ([3]; 5 μg/disk, duplicate a)): <1 mm
size of the inhibition zone, P. aeruginosa b) ([3]; 5 μg/disk, duplicate b)): <1 mm
size of the inhibition zone, P. aeruginosa a) ([3]; 10 μg/disk, duplicate a)): <1 mm
size of the inhibition zone, P. aeruginosa b) ([3]; 10 μg/disk, duplicate b)): <1 mm
size of the inhibition zone, K. pneumonia a) ([4]; 5 μg/disk, duplicate a)): <1 mm
size of the inhibition zone, K. pneumonia b) ([4]; 5 μg/disk, duplicate b)): <1 mm
size of the inhibition zone, K. pneumonia a) ([4]; 10 μg/disk, duplicate a)): <1 mm
size of the inhibition zone, K. pneumonia b) ([4]; 10 μg/disk, duplicate b)): <1 mm

CC[C@H]1OC(=O)[C@H](C)[C@@H](O[C@H]2C[C@@](C)(OC)[C@@H](O)[C@H](C)O2)[C@H](C)[C@@H](O[C@@H]2O[C@H](C)C[C@H](N(C)C)[C@H]2O)[C@](C)(O)C[C@@H](C)CN(C)[C@H](C)[C@@H](O)[C@]1(C)O [azithromycin]
effect on transepithelial electrical resistance / processing of tight junction proteins (human airway epithelia): may increase the transepithelial electrical resistance

CC[C@H]1OC(=O)[C@H](C)C(O[C@H]2C[C@@](C)(OC)C[C@H](C)O2)[C@H](C)[C@@H](OC2O[C@H](C)C[C@H](N(C)C)[C@H]2O)[C@](C)(O)C[C@@H](C)CN(C)[C@H](C)[C@@H](O)[C@]1(C)O (some centres unmarked) [PP004]
zone of inhibition at 5 µg/disc ([1]; Staphylococcus aureus, ATTC6538; 5 μg/disk, duplicate a); read-out: size of the inhibition zone, S. aureus a)): < 1 mm
zone of inhibition at 5 µg/disc ([1]; Staphylococcus aureus, ATTC6538; 5 μg/disk, duplicate b); read-out: size of the inhibition zone, S. aureus b)): < 1 mm
zone of inhibition at 10 µg/disc ([1]; Staphylococcus aureus, ATTC6538; 10 μg/disk, duplicate a); read-out: size of the inhibition zone, S. aureus a)): < 1 mm
zone of inhibition at 10 µg/disc ([1]; Staphylococcus aureus, ATTC6538; 10 μg/disk, duplicate b); read-out: size of the inhibition zone, S. aureus b)): < 1 mm
zone of inhibition at 5 µg/disc ([2]; Escherichia coli, ATCC8739; 5 μg/disk, duplicate a); read-out: size of the inhibition zone, E. coli a)): < 1 mm
zone of inhibition at 5 µg/disc ([2]; Escherichia coli, ATCC8739; 5 μg/disk, duplicate b); read-out: size of the inhibition zone, E. coli b)): < 1 mm
zone of inhibition at 10 µg/disc ([2]; Escherichia coli, ATCC8739; 10 μg/disk, duplicate a); read-out: size of the inhibition zone, E. coli a)): < 1 mm
zone of inhibition at 10 µg/disc ([2]; Escherichia coli, ATCC8739; 10 μg/disk, duplicate b); read-out: size of the inhibition zone, E. coli b)): < 1 mm
zone of inhibition at 5 µg/disc ([3]; Pseudomonas aeruginosa, ATCC9027; 5 μg/disk, duplicate a); read-out: size of the inhibition zone, P. aeruginosa a)): < 1 mm
zone of inhibition at 5 µg/disc ([3]; Pseudomonas aeruginosa, ATCC9027; 5 μg/disk, duplicate b); read-out: size of the inhibition zone, P. aeruginosa b)): < 1 mm
zone of inhibition at 10 µg/disc ([3]; Pseudomonas aeruginosa, ATCC9027; 10 μg/disk, duplicate a); read-out: size of the inhibition zone, P. aeruginosa a)): < 1 mm
zone of inhibition at 10 µg/disc ([3]; Pseudomonas aeruginosa, ATCC9027; 10 μg/disk, duplicate b); read-out: size of the inhibition zone, P. aeruginosa b)): < 1 mm
zone of inhibition at 5 µg/disc ([4]; Klebsiella pneumoniae, ATCC35657; 5 μg/disk, duplicate a); read-out: size of the inhibition zone, K. pneumonia a)): < 1 mm
zone of inhibition at 5 µg/disc ([4]; Klebsiella pneumoniae, ATCC35657; 5 μg/disk, duplicate b); read-out: size of the inhibition zone, K. pneumonia b)): < 1 mm
zone of inhibition at 10 µg/disc ([4]; Klebsiella pneumoniae, ATCC35657; 10 μg/disk, duplicate a); read-out: size of the inhibition zone, K. pneumonia a)): < 1 mm
zone of inhibition at 10 µg/disc ([4]; Klebsiella pneumoniae, ATCC35657; 10 μg/disk, duplicate b); read-out: size of the inhibition zone, K. pneumonia b)): < 1 mm
